According to US10227357B2, “Compounds and methods for kinase modulation, and indications therefor” (Plexxikon Inc., priority 2012, dated 2019):

How the values were obtained:
[1] = molecular target: T1, c-kit mutant D816V (Homo sapiens, UniProt P10721, D816V/DEL694-753); assay: c-Kit mutant D816V biochemical assay, AlphaScreen; conditions: c-kit D816V biochemical inhibitory activity; read-out: Biochemical activity (IC50 μM) Kit D816V
T1 construct: residues 551-934, kinase insertion domain residues 694-753 deleted; 6x-histidine (N); made in house; host or cells: E. coli Arctic Express (DE3) RIL (Stratagene)
In short: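 Eight-point, threefold compound series incubated 30 min at room temperature with E. coli-produced D816V kinase, 10 μM ATP, Mg2+/Mn2+ HEPES buffer pH 7.2 and 5% DMSO. After EDTA stop, streptavidin and anti-phosphotyrosine (PY20) AlphaScreen beads gave the read-out, and IC50 was fitted from the concentration–signal curve.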

[2] = molecular target: T2, c-kit kinase (Homo sapiens, UniProt P10721); assay: c-Kit biochemical assay, AlphaScreen, 10 μM ATP; conditions: c-kit biochemical inhibitory activity; read-out: Biochemical activity (IC50 μM) Kit
T2 construct: The c-kit (or kinase domain thereof) is an active kinase in AlphaScreen; poly-Histidine tag (in-house protein only) (cleaved yes); host or cells: E. coli BL21(DE3)RIL, co-expressed with PTP1B
In short: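 His-tagged c-Kit expressed in E. coli with co-expressed PTP1B (dephosphorylated), tag removed; 0.1 ng per reaction with biotinylated-peptide substrate in 50 mM HEPES pH 7.2, 5 mM MgCl2, 5 mM MnCl2, 5% DMSO, 10 μM ATP, 1 h at room temperature. Phosphorylation detected by AlphaScreen (streptavidin donor, PY20 acceptor beads); IC50 from 8-point 1:3 dilution series.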

T1 sequence (P10721 with tags, fused parts or gaps DEL694-753/D816V): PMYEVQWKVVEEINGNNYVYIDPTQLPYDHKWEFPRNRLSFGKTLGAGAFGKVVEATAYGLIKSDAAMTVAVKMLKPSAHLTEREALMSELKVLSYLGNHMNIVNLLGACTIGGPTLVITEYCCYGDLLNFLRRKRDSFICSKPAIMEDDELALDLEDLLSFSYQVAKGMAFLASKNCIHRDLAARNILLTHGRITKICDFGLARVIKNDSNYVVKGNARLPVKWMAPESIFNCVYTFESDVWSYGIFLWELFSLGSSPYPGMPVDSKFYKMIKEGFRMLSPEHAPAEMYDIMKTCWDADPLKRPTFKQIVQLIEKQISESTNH
T2 sequence (P10721 26-976): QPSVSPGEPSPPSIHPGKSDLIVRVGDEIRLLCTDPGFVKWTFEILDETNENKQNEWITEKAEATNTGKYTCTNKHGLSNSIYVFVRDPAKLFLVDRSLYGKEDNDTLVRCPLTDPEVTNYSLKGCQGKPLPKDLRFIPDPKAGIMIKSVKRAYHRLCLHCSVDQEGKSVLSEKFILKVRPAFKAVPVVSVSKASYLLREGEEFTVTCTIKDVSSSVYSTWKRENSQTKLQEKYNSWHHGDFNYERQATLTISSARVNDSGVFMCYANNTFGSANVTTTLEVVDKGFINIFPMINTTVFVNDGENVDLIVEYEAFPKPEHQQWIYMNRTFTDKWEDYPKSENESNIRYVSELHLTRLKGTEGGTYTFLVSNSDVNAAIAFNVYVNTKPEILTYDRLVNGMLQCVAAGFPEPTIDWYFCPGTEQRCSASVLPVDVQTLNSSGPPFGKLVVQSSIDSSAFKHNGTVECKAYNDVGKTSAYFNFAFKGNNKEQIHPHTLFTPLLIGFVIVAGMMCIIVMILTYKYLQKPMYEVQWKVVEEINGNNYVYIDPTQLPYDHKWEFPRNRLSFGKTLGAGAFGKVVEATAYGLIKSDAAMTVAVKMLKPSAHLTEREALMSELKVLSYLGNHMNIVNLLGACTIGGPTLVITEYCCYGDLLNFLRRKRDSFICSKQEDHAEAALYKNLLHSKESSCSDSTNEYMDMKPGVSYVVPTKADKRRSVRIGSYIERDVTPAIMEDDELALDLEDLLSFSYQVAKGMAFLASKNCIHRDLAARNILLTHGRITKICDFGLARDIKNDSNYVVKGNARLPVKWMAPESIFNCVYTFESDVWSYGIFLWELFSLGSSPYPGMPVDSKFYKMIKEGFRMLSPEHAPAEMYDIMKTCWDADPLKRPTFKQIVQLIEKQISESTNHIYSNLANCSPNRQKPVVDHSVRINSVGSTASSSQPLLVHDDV

SMILES	IC50 [1]	IC50 [2]
COc1cc([C@H](C)NC(=O)N2CCN(c3ncnc4[nH]c(-c5ccc(F)cc5)cc34)C[C@H]2C)ccc1Cl [P-0649, (2R)-N-[(1S)-1-(4-chloro-3-methoxy-phenyl)ethyl]-4-[6-(4-fluorophenyl)-7H-pyrrolo[2,3-d]pyrimidin-4-yl]-2-methyl-piperazine-1-carboxamide]	0.0001 to 1 µM	1 to 10 µM
COc1cc(-c2cc3c(N4CCN(C(=O)N[C@@H](C)c5cccc(Cl)c5)C(C)(C)C4)ncnc3[nH]2)ccn1 [P-0650, N-[(1S)-1-(3-chlorophenyl)ethyl]-4-[6-(2-methoxy-4-pyridyl)-7H-pyrrolo[2,3-d]pyrimidin-4-yl]-2,2-dimethyl-piperazine-1-carboxamide]	0.0001 to 1 µM	1 to 10 µM
COc1cc(-c2cc3c(C4=CCC(NS(=O)(=O)c5ccc(OC(F)(F)F)cc5)CC4)ncnc3[nH]2)ccn1 (stereo not drawn) [P-0654, N-[4-[6-(2-methoxy-4-pyridyl)-7H-pyrrolo[2,3-d]pyrimidin-4-yl]cyclohex-3-en-1-yl]-4-(trifluoromethoxy)benzenesulfonamide]	0.0001 to 1 µM	10 to 200 µM
O=S(=O)(Nc1ccc(-c2ncnc3[nH]c(Cl)cc23)cc1)c1ccc(OC(F)F)cc1 [P-0655, N-[4-(6-chloro-7H-pyrrolo[2,3-d]pyrimidin-4-yl)phenyl]-4-(difluoromethoxy)benzenesulfonamide]	1 to 10 µM	1 to 10 µM
CC1(C)C=C(c2cc3c(N4CCC(NS(=O)(=O)c5ccc(OC(F)(F)F)cc5)CC4)ncnc3[nH]2)CC(C)(C)N1 [P-0662, N-[1-[6-(2,2,6,6-tetramethyl-1,3-dihydropyridin-4-yl)-7H-pyrrolo[2,3-d]pyrimidin-4-yl]-4-piperidyl]-4-(trifluoromethoxy)benzenesulfonamide]	1 to 10 µM	1 to 10 µM
Cc1nc(C)c(-c2cc3c(N4CCC(NS(=O)(=O)c5ccc(OC(F)(F)F)cc5)CC4)ncnc3[nH]2)s1 [P-0664, N-[1-[6-(2,4-dimethylthiazol-5-yl)-7H-pyrrolo[2,3-d]pyrimidin-4-yl]-4-piperidyl]-4-(trifluoromethoxy)benzenesulfonamide]	0.0001 to 1 µM	1 to 10 µM
CCc1ccc(S(=O)(=O)NC2CCN(c3ncnc4[nH]c(-c5cnn(C)c5)cc34)CC2)s1 [P-0665, 5-ethyl-N-[1-[6-(1-methylpyrazol-4-yl)-7H-pyrrolo[2,3-d]pyrimidin-4-yl]-4-piperidyl]thiophene-2-sulfonamide]	0.0001 to 1 µM	0.0001 to 1 µM
Cc1nn(C)cc1-c1cc2c(N3CCC(NS(=O)(=O)c4ccc(Cl)cc4)CC3)ncnc2[nH]1 [P-0667, 4-chloro-N-[1-[6-(1,3-dimethylpyrazol-4-yl)-7H-pyrrolo[2,3-d]pyrimidin-4-yl]-4-piperidyl]benzenesulfonamide]	0.0001 to 1 µM	0.0001 to 1 µM
Cc1nn(C)cc1-c1cc2c(N3CCC(NS(=O)(=O)c4ccc(OC(F)(F)F)cc4)CC3)ncnc2[nH]1 [P-0668, N-[1-[6-(1,3-dimethylpyrazol-4-yl)-7H-pyrrolo[2,3-d]pyrimidin-4-yl]-4-piperidyl]-4-(trifluoromethoxy)benzenesulfonamide]	0.0001 to 1 µM	0.0001 to 1 µM
O=S(=O)(NC1CCN(c2ncnc3[nH]c(C4=CCCC4)cc23)CC1)c1ccc(OC(F)(F)F)cc1 [P-0669, N-[1-[6-(cyclopenten-1-yl)-7H-pyrrolo[2,3-d]pyrimidin-4-yl]-4-piperidyl]-4-(trifluoromethoxy)benzenesulfonamide]	0.0001 to 1 µM	0.0001 to 1 µM
Cc1ccc(S(=O)(=O)NC2CCN(c3ncnc4[nH]c(-c5cnn(C)c5)cc34)CC2C)cc1 (stereo not drawn) [P-0672, 4-methyl-N-[3-methyl-1-[6-(1-methylpyrazol-4-yl)-7H-pyrrolo[2,3-d]pyrimidin-4-yl]-4-piperidyl]benzenesulfonamide]	0.0001 to 1 µM	0.0001 to 1 µM
CN(C)c1ncc(-c2cc3c(N4CCC(NS(=O)(=O)c5ccc(OC(F)(F)F)cc5)CC4)ncnc3[nH]2)s1 [P-0673, N-[1-[6-[2-(dimethylamino)thiazol-5-yl]-7H-pyrrolo[2,3-d]pyrimidin-4-yl]-4-piperidyl]-4-(trifluoromethoxy)benzenesulfonamide]	1 to 10 µM	1 to 10 µM
CCc1ccc(S(=O)(=O)NC2CCN(c3ncnc4[nH]c(C)cc34)CC2)cc1 [P-0674, 4-ethyl-N-[1-(6-methyl-7H-pyrrolo[2,3-d]pyrimidin-4-yl)-4-piperidyl]benzenesulfonamide]	1 to 10 µM	10 to 200 µM
Cc1ccc(S(=O)(=O)NC2CCN(c3ncnc4[nH]c(C)cc34)CC2)cc1 [P-0675, 4-methyl-N-[1-(6-methyl-7H-pyrrolo[2,3-d]pyrimidin-4-yl)-4-piperidyl]benzenesulfonamide]	1 to 10 µM	10 to 200 µM
CCc1ccc(S(=O)(=O)NC2CCN(c3ncnc4[nH]c(-c5cnn(C)c5)cc34)CC2)cc1 [P-0676, 4-ethyl-N-[1-[6-(1-methylpyrazol-4-yl)-7H-pyrrolo[2,3-d]pyrimidin-4-yl]-4-piperidyl]benzenesulfonamide]	0.0001 to 1 µM	0.0001 to 1 µM
CC(C)(NC(=O)N1CC=C(c2ncnc3cc(-c4ccc(F)cc4)sc23)CC1)c1ccccc1 [P-0679, 4-[6-(4-fluorophenyl)thieno[3,2-d]pyrimidin-4-yl]-N-(1-methyl-1-phenyl-ethyl)-3,6-dihydro-2H-pyridine-1-carboxamide]	0.0001 to 1 µM	1 to 10 µM
COc1cccc([C@H](C)NC(=O)N2CCN(c3ncnc4cc(N5CCC(F)(F)CC5)sc34)CC2(C)C)c1 [P-0680, 4-[6-(4,4-difluoro-1-piperidyl)thieno[3,2-d]pyrimidin-4-yl]-N-[(1S)-1-(3-methoxyphenyl)ethyl]-2,2-dimethyl-piperazine-1-carboxamide]	0.0001 to 1 µM	1 to 10 µM
CCOC(=O)N1CCN(c2cc3ncnc(N4CCN(C(=O)N[C@@H](C)c5cccc(OC)c5)C(C)(C)C4)c3s2)CC1 [P-0681, ethyl 4-[4-[4-[[(1S)-1-(3-methoxyphenyl)ethyl]carbamoyl]-3,3-dimethyl-piperazin-1-yl]thieno[3,2-d]pyrimidin-6-yl]piperazine-1-carboxylate]	0.0001 to 1 µM	1 to 10 µM
COc1cccc([C@H](C)NC(=O)N2CCN(c3ncnc4[nH]c(C)cc34)C[C@H]2C)c1 [P-0683, (2R)-N-[(1S)-1-(3-methoxyphenyl)ethyl]-2-methyl-4-(6-methyl-7H-pyrrolo[2,3-d]pyrimidin-4-yl)piperazine-1-carboxamide]	10 to 200 µM	10 to 200 µM
Cc1cc2c(N3CCN(C(=O)N[C@@H](C)c4cccc(F)c4)[C@H](C)C3)ncnc2[nH]1 [P-0684, (2R)-N-[(1S)-1-(3-fluorophenyl)ethyl]-2-methyl-4-(6-methyl-7H-pyrrolo[2,3-d]pyrimidin-4-yl)piperazine-1-carboxamide]	0.0001 to 1 µM	10 to 200 µM
COc1cccc([C@H](C)NC(=O)N2CCN(c3ncnc4[nH]c(-c5ccc(C#N)cc5)cc34)CC2(C)C)c1 [P-0687, 4-[6-(4-cyanophenyl)-7H-pyrrolo[2,3-d]pyrimidin-4-yl]-N-[(1S)-1-(3-methoxyphenyl)ethyl]-2,2-dimethyl-piperazine-1-carboxamide]	1 to 10 µM	10 to 200 µM
C[C@H](NC(=O)N1CCN(c2ncnc3[nH]c(-c4ccc(C#N)cc4)cc23)CC1(C)C)c1cccc(F)c1 [P-0688, 4-[6-(4-cyanophenyl)-7H-pyrrolo[2,3-d]pyrimidin-4-yl]-N-[(1S)-1-(3-fluorophenyl)ethyl]-2,2-dimethyl-piperazine-1-carboxamide]	0.0001 to 1 µM	1 to 10 µM
C[C@H](NC(=O)N1CCN(c2ncnc3[nH]c(-c4ccc(C#N)cc4)cc23)CC1(C)C)c1cccc(Cl)c1 [P-0689, N-[(1S)-1-(3-chlorophenyl)ethyl]-4-[6-(4-cyanophenyl)-7H-pyrrolo[2,3-d]pyrimidin-4-yl]-2,2-dimethyl-piperazine-1-carboxamide]	0.0001 to 1 µM	0.0001 to 1 µM
C[C@H](NC(=O)N1CCN(c2ncnc3[nH]c(-c4ccc(C#N)cc4)cc23)C[C@H]1C)c1ccc(F)cc1 [P-0690, (2R)-4-[6-(4-cyanophenyl)-7H-pyrrolo[2,3-d]pyrimidin-4-yl]-N-[(1S)-1-(4-fluorophenyl)ethyl]-2-methyl-piperazine-1-carboxamide]	0.0001 to 1 µM	10 to 200 µM
C[C@H](NC(=O)N1CCN(c2ncnc3[nH]c(-c4ccc(C#N)cc4)cc23)C[C@H]1C)c1ccc(Cl)cc1 [P-0691, (2R)-N-[(1S)-1-(4-chlorophenyl)ethyl]-4-[6-(4-cyanophenyl)-7H-pyrrolo[2,3-d]pyrimidin-4-yl]-2-methyl-piperazine-1-carboxamide]	0.0001 to 1 µM	10 to 200 µM
COc1cccc([C@H](C)NC(=O)N2CCN(c3ncnc4[nH]c(-c5ccc(C#N)cc5)cc34)C[C@H]2C)c1 [P-0692, (2R)-4-[6-(4-cyanophenyl)-7H-pyrrolo[2,3-d]pyrimidin-4-yl]-N-[(1S)-1-(3-methoxyphenyl)ethyl]-2-methyl-piperazine-1-carboxamide]	0.0001 to 1 µM	1 to 10 µM
C[C@H](NC(=O)N1CCN(c2ncnc3[nH]c(-c4ccc(C#N)cc4)cc23)C[C@H]1C)c1cccc(Cl)c1 [P-0694, (2R)-N-[(1S)-1-(3-chlorophenyl)ethyl]-4-[6-(4-cyanophenyl)-7H-pyrrolo[2,3-d]pyrimidin-4-yl]-2-methyl-piperazine-1-carboxamide]	0.0001 to 1 µM	10 to 200 µM
